Data: the NIST ThermoML archive (doi:10.1016/j.tca.2013.03.008)
± gives the expanded uncertainty stated by the source.

Test: xn = mol fraction of the nth substance listed
Details: 101 kPa, Liquid; for viscosity: Capillary tube (Ostwald / Ubbelohde) method; for mass density: Vibrating tube method

CCOC(=O)CCl [ethyl chloroethanoate] + CCC(=O)CC
Details	mass density, 298.15 K [kg/m3]	mass density, 308.15 K [kg/m3]	mass density, 318.15 K [kg/m3]	viscosity, 298.15 K [mPa·s]	viscosity, 308.15 K [mPa·s]	viscosity, 318.15 K [mPa·s]
x2 = 0	1144.11 ± 0.45	1131.46 ± 0.44	1118.74 ± 0.42	1.095 ± 0.011	0.939 ± 0.009	0.815 ± 0.008
x2 = 0.0502	1127.54 ± 0.43	1115 ± 0.42	1102.39 ± 0.41	1.05 ± 0.01	0.902 ± 0.009	0.783 ± 0.008
x2 = 0.0877	1115.18 ± 0.42	1102.73 ± 0.41	1090.21 ± 0.39	1.017 ± 0.01	0.874 ± 0.009	0.76 ± 0.01
x2 = 0.1207	1104.29 ± 0.41	1091.91 ± 0.4	1079.49 ± 0.38	0.987 ± 0.01	0.85 ± 0.009	0.741 ± 0.008
x2 = 0.1692	1088.28 ± 0.39	1076.05 ± 0.38	1063.74 ± 0.37	0.944 ± 0.009	0.815 ± 0.008	0.713 ± 0.007
x2 = 0.2551	1059.87 ± 0.37	1047.89 ± 0.36	1035.82 ± 0.35	0.87 ± 0.009	0.756 ± 0.008	0.666 ± 0.007
x2 = 0.3266	1036.16 ± 0.35	1024.36 ± 0.34	1012.49 ± 0.33	0.813 ± 0.008	0.71 ± 0.007	0.63 ± 0.006
x2 = 0.413	1007.44 ± 0.34	995.88 ± 0.33	984.26 ± 0.33	0.75 ± 0.008	0.659 ± 0.007	0.587 ± 0.006
x2 = 0.4998	978.47 ± 0.34	967.18 ± 0.34	955.81 ± 0.34	0.695 ± 0.007	0.612 ± 0.006	0.548 ± 0.006
x2 = 0.574	953.63 ± 0.33	942.56 ± 0.33	931.39 ± 0.33	0.653 ± 0.007	0.575 ± 0.006	0.517 ± 0.005
x2 = 0.6638	923.44 ± 0.32	912.62 ± 0.32	901.71 ± 0.32	0.604 ± 0.006	0.533 ± 0.006	0.48 ± 0.005
x2 = 0.7475	895.2 ± 0.31	884.6 ± 0.31	873.95 ± 0.31	0.562 ± 0.006	0.498 ± 0.005	0.449 ± 0.005
x2 = 0.827	868.26 ± 0.31	857.9 ± 0.31	847.48 ± 0.31	0.522 ± 0.005	0.466 ± 0.005	0.421 ± 0.005
x2 = 0.9114	839.54 ± 0.31	829.45 ± 0.31	819.27 ± 0.31	0.481 ± 0.005	0.434 ± 0.005	0.391 ± 0.004

CCOC(=O)CCl [ethyl chloroethanoate] + CCC(C)O
Details	mass density, 298.15 K [kg/m3]	mass density, 308.15 K [kg/m3]	mass density, 318.15 K [kg/m3]	viscosity, 298.15 K [mPa·s]	viscosity, 308.15 K [mPa·s]	viscosity, 318.15 K [mPa·s]
x2 = 0	1144.11 ± 0.45	1131.46 ± 0.44	1118.74 ± 0.42	1.095 ± 0.011	0.934 ± 0.009	0.816 ± 0.008
x2 = 0.1008	1111.91 ± 0.42	1099.43 ± 0.4	1086.98 ± 0.39	1.055 ± 0.01	0.895 ± 0.009	0.778 ± 0.008
x2 = 0.204	1078.95 ± 0.39	1066.72 ± 0.37	1054.42 ± 0.36	1.041 ± 0.01	0.877 ± 0.009	0.755 ± 0.008
x2 = 0.2885	1051.67 ± 0.36	1039.71 ± 0.35	1027.56 ± 0.34	1.033 ± 0.01	0.875 ± 0.009	0.756 ± 0.008
x2 = 0.3625	1027.45 ± 0.35	1015.7 ± 0.34	1003.8 ± 0.33	1.048 ± 0.01	0.88 ± 0.009	0.753 ± 0.008
x2 = 0.45	998.34 ± 0.34	986.92 ± 0.34	975.3 ± 0.33	1.107 ± 0.011	0.895 ± 0.009	0.759 ± 0.008
x2 = 0.5384	968.29 ± 0.34	957.21 ± 0.34	945.94 ± 0.34	1.183 ± 0.012	0.945 ± 0.01	0.791 ± 0.008
x2 = 0.6138	942.27 ± 0.33	931.52 ± 0.33	920.57 ± 0.33	1.246 ± 0.013	0.987 ± 0.01	0.817 ± 0.009
x2 = 0.6906	915.31 ± 0.32	904.95 ± 0.32	894.31 ± 0.32	1.332 ± 0.014	1.063 ± 0.011	0.866 ± 0.009
x2 = 0.7724	886.17 ± 0.31	876.24 ± 0.31	865.99 ± 0.31	1.489 ± 0.015	1.182 ± 0.012	0.947 ± 0.01
x2 = 0.8541	856.59 ± 0.31	847.12 ± 0.31	837.33 ± 0.31	1.789 ± 0.019	1.367 ± 0.014	1.089 ± 0.012
x2 = 0.9197	832.49 ± 0.31	823.43 ± 0.31	814.03 ± 0.31	2.183 ± 0.024	1.611 ± 0.017	1.225 ± 0.013

CCC(=O)CC [pentan-3-one] + CCC(C)O
Details	mass density, 298.15 K [kg/m3]	mass density, 308.15 K [kg/m3]	mass density, 318.15 K [kg/m3]	viscosity, 298.15 K [mPa·s]	viscosity, 308.15 K [mPa·s]	viscosity, 318.15 K [mPa·s]
x1 = 0.0848	803.03 ± 0.31	794.48 ± 0.31	785.52 ± 0.31	2.069 ± 0.022	1.539 ± 0.017	1.172 ± 0.013
x1 = 0.1511	803.42 ± 0.31	794.8 ± 0.31	785.78 ± 0.31	1.602 ± 0.017	1.246 ± 0.013	0.976 ± 0.01
x1 = 0.2353	803.97 ± 0.31	795.22 ± 0.31	786.14 ± 0.31	1.229 ± 0.013	0.986 ± 0.01	0.802 ± 0.008
x1 = 0.3023	804.42 ± 0.31	795.58 ± 0.31	786.43 ± 0.31	1.039 ± 0.011	0.854 ± 0.009	0.711 ± 0.007
x1 = 0.3793	804.94 ± 0.31	795.99 ± 0.31	786.77 ± 0.31	0.879 ± 0.009	0.734 ± 0.008	0.622 ± 0.007
x1 = 0.4676	805.54 ± 0.31	796.47 ± 0.31	787.16 ± 0.31	0.761 ± 0.008	0.637 ± 0.007	0.55 ± 0.006
x1 = 0.4927	805.71 ± 0.31	796.61 ± 0.31	787.27 ± 0.31	0.731 ± 0.008	0.612 ± 0.006	0.531 ± 0.006
x1 = 0.5536	806.12 ± 0.31	796.95 ± 0.31	787.54 ± 0.31	0.657 ± 0.007	0.57 ± 0.006	0.499 ± 0.005
x1 = 0.6269	806.62 ± 0.31	797.36 ± 0.31	787.87 ± 0.31	0.6 ± 0.006	0.524 ± 0.006	0.461 ± 0.005
x1 = 0.7129	807.21 ± 0.31	797.84 ± 0.31	788.26 ± 0.31	0.536 ± 0.006	0.482 ± 0.005	0.429 ± 0.005
x1 = 0.8104	807.89 ± 0.31	798.4 ± 0.31	788.7 ± 0.31	0.494 ± 0.005	0.446 ± 0.005	0.403 ± 0.004
x1 = 0.9043	808.59 ± 0.31	798.96 ± 0.31	789.15 ± 0.31	0.466 ± 0.005	0.419 ± 0.005	0.378 ± 0.004
x1 = 1	809.38 ± 0.31	799.55 ± 0.31	789.63 ± 0.31	0.442 ± 0.005	0.398 ± 0.004	0.362 ± 0.004
